{"source": "patent US20060257347A1", "about": "“Self-preservation system” (priority 2005, published 2006)", "origin": "cited, not measured here", "settings_in_all_cases": "hinokitiol alone; known to be", "key": {"[1]": {"test_system": "Escherichia coli (ATCC No. 8739)"}, "[2]": {"test_system": "Pseudomonas aeruginosa (ATCC No. 9027)"}, "[3]": {"test_system": "Staphylococcus aureus (ATCC No. 6538)"}, "[4]": {"test_system": "Candida albicans (ATCC No. 10231)"}, "[5]": {"test_system": "Aspergillus niger (ATCC No. 16404)"}}, "data": [{"smiles": "CC(C)c1cccc(=O)c(O)c1", "note": "[hinokitiol, Hinokitiol]", "values": [{"measurement": "MIC (Minimum Inhibitory Concentration) Escherichia coli", "setting": "[1]", "result": 40.0, "unit": "mg/mL"}, {"measurement": "MIC (Minimum Inhibitory Concentration) Pseudomonas aeruginosa", "setting": "[2]", "result": 50.0, "unit": "mg/mL"}, {"measurement": "MIC (Minimum Inhibitory Concentration) Staphylococcus aureus", "setting": "[3]", "result": 40.0, "unit": "mg/mL"}, {"measurement": "MIC (Minimum Inhibitory Concentration) Candida albicans", "setting": "[4]", "result": 12.5, "unit": "mg/mL"}, {"measurement": "MIC (Minimum Inhibitory Concentration) Aspergillus niger", "setting": "[5]", "result": 40.0, "unit": "mg/mL"}]}]}
